Reference: PubChem BioAssay AID248 (DTP/NCI, 2004)
Where “and” joins values, the source holds several entries; their conditions need not be identical. Equal entries are not always repeated. Inconclusive results and toxic doses are left out. No stated cut-off is given here; in the data, active means T/C of 150% or more; inactive means T/C below 125%.

Tested on: L1210 leukemia ip in BDF1 mice, survival T/C
Experiment: NCI In Vivo Anticancer Drug Screen. Data for tumor model L1210 Leukemia (intraperitoneal) in B6D2F1 (BDF1) mice
Settings: endpoint: mean survival time, higher = longer survival
Procedure, shortened: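 Survival endpoint. Drug-treated group vs vehicle group, expressed as T divided by C. Tumor passaged by transplantation.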

[1] = dose: 100.0 mg/kg/injection, schedule: Q01DX001 (ip), vehicle: Klucel (hydroxypropylcellulose) (HPC)
[2] = dose: 100.0 mg/kg/injection, schedule: Q04DX002 (ip), vehicle: Klucel (hydroxypropylcellulose) (HPC)
[3] = dose: 200.0 mg/kg/injection, schedule: Q01DX001 (ip), vehicle: Klucel (hydroxypropylcellulose) (HPC)
[4] = dose: 200.0 mg/kg/injection, schedule: Q04DX002 (ip), vehicle: Klucel (hydroxypropylcellulose) (HPC)
[5] = dose: 400.0 mg/kg/injection, schedule: Q01DX001 (ip), vehicle: Klucel (hydroxypropylcellulose) (HPC)
[6] = dose: 400.0 mg/kg/injection, schedule: Q04DX002 (ip), vehicle: Klucel (hydroxypropylcellulose) (HPC)
[7] = dose: 100.0 mg/kg/injection, schedule: Q01DX009 (ip), vehicle: saline
[8] = dose: 100.0 mg/kg/injection, schedule: Q04DX003 (ip), vehicle: saline
[9] = dose: 200.0 mg/kg/injection, schedule: Q01DX009 (ip), vehicle: saline
[10] = dose: 200.0 mg/kg/injection, schedule: Q04DX003 (ip), vehicle: saline
[11] = dose: 400.0 mg/kg/injection, schedule: Q01DX009 (ip), vehicle: saline
[12] = dose: 400.0 mg/kg/injection, schedule: Q04DX003 (ip), vehicle: saline
[13] = dose: 100.0 mg/kg/injection, schedule: Q01DX009 (ip), vehicle: Klucel (hydroxypropylcellulose) (HPC)
[14] = dose: 200.0 mg/kg/injection, schedule: Q01DX009 (ip), vehicle: Klucel (hydroxypropylcellulose) (HPC)
[15] = dose: 400.0 mg/kg/injection, schedule: Q01DX009 (ip), vehicle: Klucel (hydroxypropylcellulose) (HPC)
[16] = dose: 100.0 mg/kg/injection, schedule: Q01DX001 (ip), vehicle: other
[17] = dose: 200.0 mg/kg/injection, schedule: Q01DX001 (ip), vehicle: other
[18] = dose: 100.0 mg/kg/injection, schedule: Q04DX003 (ip), vehicle: Klucel (hydroxypropylcellulose) (HPC)
[19] = dose: 200.0 mg/kg/injection, schedule: Q04DX003 (ip), vehicle: Klucel (hydroxypropylcellulose) (HPC)
[20] = dose: 400.0 mg/kg/injection, schedule: Q04DX003 (ip), vehicle: Klucel (hydroxypropylcellulose) (HPC)
[21] = dose: 40.0 mg/kg/injection, schedule: Q01DX009 (ip), vehicle: saline

Measured: T/C

c1ccc(N2CN(c3ccccc3)CN(c3ccccc3)C2)cc1
inactive: [1] 97 % of control | [2] 101 % of control | [3] 92 % of control | [4] 101 % of control | [5] 92 % of control | [6] 97 % of control

CCOC(=O)c1csc(CCNC(=O)c2ccccc2)n1
inactive: dose: 100.0 mg/kg/injection, schedule: Q01DX001 (ip), vehicle: saline 99 % of control | [7] 108 % of control | [8] 96 % of control | dose: 200.0 mg/kg/injection, schedule: Q01DX001 (ip), vehicle: saline 102 % of control | [9] 97 % of control | [10] 98 % of control | dose: 400.0 mg/kg/injection, schedule: Q01DX001 (ip), vehicle: saline 96 % of control | [11] 100 % of control | [12] 95 % of control

CCOC(=O)CCN1CCCCC1
inactive: [7] 101 % of control | [8] 93 % of control | [9] 98 % of control | [10] 97 % of control | [11] 104 % of control | [12] 103 % of control

CCCCCCCCCCCC(=O)Nc1cc(Cl)c(OC)cc1OC
inactive: [13] 95 % of control | [14] 92 % of control | [15] 93 % of control

C1CCN(c2c3c(nc4nnnn24)CCC3)CC1
inactive: dose: 5.0 mg/kg/injection, schedule: Q01DX001 (ip), vehicle: other 98 % of control | dose: 10.0 mg/kg/injection, schedule: Q01DX001 (ip), vehicle: other 96 % of control | dose: 20.0 mg/kg/injection, schedule: Q01DX001 (ip), vehicle: other 98 % of control | dose: 40.0 mg/kg/injection, schedule: Q01DX001 (ip), vehicle: other 110 % of control | dose: 80.0 mg/kg/injection, schedule: Q01DX001 (ip), vehicle: other 96 % of control | [16] 96 % of control | [17] 96 % of control

CCOC(=O)c1nnn(-c2cccc(C(F)(F)F)c2)c1-c1ccccc1
inactive: [2] 101 % of control | [4] 105 % of control | [6] 96 % of control

CCOC(=O)CSC(=S)SCC(=O)OCC
inactive: [8] 104 % of control | [10] 105 % of control | [12] 107 % of control

CC(OC(=O)c1ccc([N+](=O)[O-])cc1)C(C)OC(=O)c1ccc([N+](=O)[O-])cc1 (stereo unspecified)
inactive: [1] 92 % of control | [3] 97 % of control | [5] 97 % of control

O=C1Cc2cccc(=O)c(O)c2C(=O)O1
inactive: dose: 25.0 mg/kg/injection, schedule: Q01DX009 (ip), vehicle: saline 97 % of control and 90 % of control | dose: 50.0 mg/kg/injection, schedule: Q01DX009 (ip), vehicle: saline 97 % of control and 92 % of control | [7] 96 % of control and 89 % of control | [8] 111 % of control and 100 % of control | [10] 97 % of control | [12] 89 % of control

CC(C)(C)C1=CC(=O)C(N2C3C4CCC(C4)C32)=C(N2C3C4CCC(C4)C32)C1=O (stereo unspecified)
inactive: [1] 96 % of control | [3] 94 % of control | [5] 87 % of control

CC(=O)C1C(=O)C(=O)OC1C (stereo unspecified)
inactive: dose: 100.0 mg/kg/injection, schedule: Q04DX003 (ip), vehicle: alcohol 94 % of control | dose: 200.0 mg/kg/injection, schedule: Q04DX003 (ip), vehicle: alcohol 96 % of control

CC(C)(CNCc1ccccc1)COS(=O)(=O)O
inactive: [8] 102 % of control | [10] 102 % of control | [12] 100 % of control

c1ccc(N=N/C(=N/Nc2ccccc2)c2ccccc2)cc1
inactive: dose: 50.0 mg/kg/injection, schedule: Q01DX009 (ip), vehicle: saline with Tween-80 90 % of control | dose: 100.0 mg/kg/injection, schedule: Q01DX009 (ip), vehicle: saline with Tween-80 96 % of control

CCCCCCCC(=O)Nc1ccc(C)cc1C
inactive: dose: 100.0 mg/kg/injection, schedule: Q04DX003 (ip), vehicle: saline with Tween-80 95 % of control | dose: 200.0 mg/kg/injection, schedule: Q04DX003 (ip), vehicle: saline with Tween-80 98 % of control | dose: 400.0 mg/kg/injection, schedule: Q04DX003 (ip), vehicle: saline with Tween-80 94 % of control

COc1ccc(OCCCO)cc1
inactive: [2] 108 % of control | [4] 105 % of control | [6] 97 % of control

Oc1ccc(C2(CCl)OCCO2)cc1
inactive: dose: 25.0 mg/kg/injection, schedule: Q01DX001 (ip), vehicle: saline with Tween-80 98 % of control | dose: 50.0 mg/kg/injection, schedule: Q01DX001 (ip), vehicle: saline with Tween-80 104 % of control | dose: 100.0 mg/kg/injection, schedule: Q01DX001 (ip), vehicle: saline with Tween-80 107 % of control

Clc1ccc2nc3nc(-c4ccccc4)c(-c4ccccc4)nc3nc2c1
inactive: dose: 75.0 mg/kg/injection, schedule: Q01DX001 (ip), vehicle: other 98 % of control | dose: 150.0 mg/kg/injection, schedule: Q01DX001 (ip), vehicle: other 98 % of control | dose: 300.0 mg/kg/injection, schedule: Q01DX001 (ip), vehicle: other 96 % of control

NC(=O)N1CCN(CCCN2c3ccccc3Sc3cc(Cl)ccc32)CC1
inactive: dose: 6.25 mg/kg/injection, schedule: Q01DX009 (ip), vehicle: Klucel (hydroxypropylcellulose) (HPC) 95 % of control | dose: 12.5 mg/kg/injection, schedule: Q01DX009 (ip), vehicle: Klucel (hydroxypropylcellulose) (HPC) 110 % of control | dose: 25.0 mg/kg/injection, schedule: Q01DX009 (ip), vehicle: Klucel (hydroxypropylcellulose) (HPC) 115 % of control | dose: 25.0 mg/kg/injection, schedule: Q04DX003 (ip), vehicle: Klucel (hydroxypropylcellulose) (HPC) 113 % of control | dose: 50.0 mg/kg/injection, schedule: Q04DX003 (ip), vehicle: Klucel (hydroxypropylcellulose) (HPC) 109 % of control | [18] 115 % of control

CN(C)c1ccc(C=Nc2ccc(Cc3ccncc3)cc2)cc1
inactive: [13] 99 % of control | [14] 98 % of control | [15] 100 % of control

C[SiH]1c2ccccc2CCc2ccccc21
inactive: [13] 102 % of control | [18] 104 % of control | [14] 104 % of control | [19] 105 % of control | [15] 106 % of control | [20] 107 % of control

CCCCCC#CC(O)(C(=O)OC)c1ccccc1 (stereo unspecified)
inactive: [16] 107 % of control | [17] 107 % of control | dose: 400.0 mg/kg/injection, schedule: Q01DX001 (ip), vehicle: other 100 % of control

CSc1ccc(C2CCCCC2OS(C)(=O)=O)cc1 (stereo unspecified)
inactive: [18] 95 % of control | [19] 92 % of control | [20] 95 % of control

C=CCC1CC2(C)C(CCC3C2CCC2(C)C(OC(C)=O)CCC32)CC1=O (stereo unspecified)
inactive: dose: 10.0 mg/kg/injection, schedule: Q01DX009 (ip), vehicle: gum acacia 89 % of control | dose: 200.0 mg/kg/injection, schedule: Q01DX009 (ip), vehicle: gum acacia 88 % of control

CC1OC(OC2C(CO)OC(O[C@H]3CC[C@@]4(C)C(=CC[C@H]5[C@@H]6C[C@@H]7O[C@@]8(CC[C@H](C)CN8)[C@@H](C)[C@@H]7[C@@]6(C)CC[C@@H]54)C3)C(OC3OC(C)C(O)C(O)C3O)C2O)C(O)C(O)C1O (stereo partly specified)
inactive: dose: 10.0 mg/kg/injection, schedule: Q01DX009 (ip), vehicle: saline 115 % of control | dose: 20.0 mg/kg/injection, schedule: Q01DX009 (ip), vehicle: saline 103 % of control | [21] 100 % of control | dose: 80.0 mg/kg/injection, schedule: Q01DX009 (ip), vehicle: saline 103 % of control

CS(C)=O.CS(C)=O.CS(C)=O.[Cl][Rh]([Cl])[Cl]
inactive: dose: 6.25 mg/kg/injection, schedule: Q01DX009 (ip), vehicle: saline 106 % of control | dose: 12.5 mg/kg/injection, schedule: Q01DX009 (ip), vehicle: saline 98 % of control | dose: 15.0 mg/kg/injection, schedule: Q01DX009 (ip), vehicle: saline 107 % of control | [21] 104 % of control | [8] 96 % of control | [10] 89 % of control
